In the assay the target is T1, CFTR (F508del/MF-HBE cells) (Homo sapiens, UniProt P13569, DEL508-508).
T1 construct: human bronchial epithelial (HBE) cells derived from CF subjects heterozygous for F508del and a minimal function CFTR mutation; endogenous in cells; host or cells: primary human bronchial epithelial cells from CF subjects (F508del/MF genotype)
T1 sequence (P13569 with tags, fused parts or gaps DEL508-508): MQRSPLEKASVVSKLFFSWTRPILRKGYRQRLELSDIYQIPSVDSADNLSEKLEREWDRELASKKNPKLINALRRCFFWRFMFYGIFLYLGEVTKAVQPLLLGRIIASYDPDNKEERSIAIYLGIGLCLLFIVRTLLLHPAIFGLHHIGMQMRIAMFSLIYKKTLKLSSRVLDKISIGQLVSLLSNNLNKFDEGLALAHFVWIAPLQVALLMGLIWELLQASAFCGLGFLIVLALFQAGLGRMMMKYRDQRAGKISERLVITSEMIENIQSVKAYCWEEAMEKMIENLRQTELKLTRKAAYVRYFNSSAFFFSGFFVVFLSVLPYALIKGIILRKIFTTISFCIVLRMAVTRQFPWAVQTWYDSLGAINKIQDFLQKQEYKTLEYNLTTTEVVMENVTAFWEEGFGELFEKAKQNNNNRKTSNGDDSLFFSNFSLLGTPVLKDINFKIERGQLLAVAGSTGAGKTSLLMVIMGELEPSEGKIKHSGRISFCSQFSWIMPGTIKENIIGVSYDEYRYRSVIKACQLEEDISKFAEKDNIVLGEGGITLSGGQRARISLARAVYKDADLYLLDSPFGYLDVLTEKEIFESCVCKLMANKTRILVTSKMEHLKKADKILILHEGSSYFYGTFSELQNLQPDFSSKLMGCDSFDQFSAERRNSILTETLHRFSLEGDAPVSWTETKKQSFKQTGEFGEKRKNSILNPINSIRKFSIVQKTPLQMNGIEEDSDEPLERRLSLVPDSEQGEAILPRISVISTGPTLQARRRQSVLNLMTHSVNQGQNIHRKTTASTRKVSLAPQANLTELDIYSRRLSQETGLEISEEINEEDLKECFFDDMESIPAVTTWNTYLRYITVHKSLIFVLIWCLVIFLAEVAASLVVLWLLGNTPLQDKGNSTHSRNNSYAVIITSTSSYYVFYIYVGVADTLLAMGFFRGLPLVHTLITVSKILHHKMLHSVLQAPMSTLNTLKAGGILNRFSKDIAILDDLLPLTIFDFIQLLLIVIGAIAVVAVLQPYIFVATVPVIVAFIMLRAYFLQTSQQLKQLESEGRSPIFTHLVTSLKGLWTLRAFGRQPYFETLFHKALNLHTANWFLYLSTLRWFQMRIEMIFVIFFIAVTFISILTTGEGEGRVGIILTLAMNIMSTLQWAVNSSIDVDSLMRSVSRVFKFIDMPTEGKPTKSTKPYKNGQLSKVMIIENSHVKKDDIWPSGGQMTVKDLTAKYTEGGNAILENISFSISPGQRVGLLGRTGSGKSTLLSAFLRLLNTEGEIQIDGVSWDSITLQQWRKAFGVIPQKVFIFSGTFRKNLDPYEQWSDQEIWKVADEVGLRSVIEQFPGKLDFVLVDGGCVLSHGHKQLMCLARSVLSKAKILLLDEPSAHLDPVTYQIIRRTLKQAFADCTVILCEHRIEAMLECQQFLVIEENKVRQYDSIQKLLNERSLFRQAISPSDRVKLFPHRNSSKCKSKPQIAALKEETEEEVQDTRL
As to the kind of experiment: Ussing chamber assay of CFTR-mediated short-circuit currents (identification of potentiator compounds). Type of assay: cell-based. Particulars: CFTR-mediated ISC in F508del/MF-HBE cells; incubated 18-24 hours at 37° C. with 10 μM (14S)-8-[3-(2-{dispiro[2.0.2.1]heptan-7-yl}ethoxy)-1H-pyrazol-1-yl]-...-2,2,4-trione, 20% human serum. Summed up:
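Short-circuit current was voltage-clamped at 0 mV and 37 °C in pH 7.4 HEPES buffers, with amiloride (30 μM) on the apical side. The CFTR component was defined as forskolin (20 μM) peak minus residual current after BPO/GlyH-101/CFTRinh-172 at 20 μM each. Cells had been pretreated 18–24 h with potentiator concentrations and 10 μM corrector in 20% human serum, kept throughout the measurement.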
For the compound `CN1CCCCCCC(O)(C2CC2)C2=NN=C(O2)c2nc1c(C(F)(F)F)cc2N` (single isomer, unassigned) [Compound 78, 17-amino-6-cyclopropyl-13-methyl-15-(trifluoromethyl)-19-oxa-3,4,13,18-tetrazatricyclo[12.3.1.12,5]nonadeca-1(18),2,4,14,16-pentaen-6-ol], the EC50 – broadly, the concentration needed to bring the measured effect to its halfway point – is below 0.5 µM. As for `CN1CCCCCCC(O)(C2CC2)C2=NN=C(O2)c2nc1c(C(F)(F)F)cc2N` (single isomer, unassigned) [Compound 79, 17-amino-6-cyclopropyl-13-methyl-15-(trifluoromethyl)-19-oxa-3,4,13,18-tetrazatricyclo[12.3.1.12,5]nonadeca-1(18),2,4,14,16-pentaen-6-ol], the EC50 is above 1 µM. Turning to `N#Cc1cc(N)c2nc1N1CCC[C@H]1CCCCCC(O)(C(F)(F)F)C1=NN=C2O1` (single isomer, unassigned) [Compound 80], the EC50 was below 0.5 µM. The figure for `N#Cc1cc(N)c2nc1N1CCC[C@H]1CCCCCC(O)(C(F)(F)F)C1=NN=C2O1` (single isomer, unassigned) [Compound 81] is above 1 µM; for `Nc1cc(C(F)(F)F)c2nc1-c1nnc(o1)C(O)(C(F)(F)F)c1cccc(n1)CCC[C@@H]1CCCN21` (single isomer, unassigned) [Compound 82] it is below 0.5 µM. In the case of `Nc1cc(C(F)(F)F)c2nc1-c1nnc(o1)C(O)(C(F)(F)F)c1cccc(n1)CCC[C@@H]1CCCN21` (single isomer, unassigned) [Compound 83], the EC50 fell in the range of 0.5 to 1 µM. To `Nc1cc(C(F)(F)F)c2nc1-c1nnc(o1)C(O)(C(F)(F)F)c1cc(ccn1)CCC[C@@H]1CCCN21` (single isomer, unassigned) [Compound 84] belongs below 0.5 µM; to `Nc1cc(C(F)(F)F)c2nc1-c1nnc(o1)C(O)(C(F)(F)F)c1cc(ccn1)CCC[C@@H]1CCCN21` (single isomer, unassigned) [Compound 85], above 1 µM; to `Nc1cc(C(F)(F)F)c2nc1-c1nnc(o1)C(O)(C(F)(F)F)c1cc(ccn1)CCC[C@@H]1CCCN21` (single isomer, unassigned) [Compound 86], above 1 µM.

In the case of `Nc1cc(C(F)(F)F)c2nc1-c1nnc(o1)C(O)(C(F)(F)F)c1cc(ccn1)CCC[C@@H]1CCCN21` (single isomer, unassigned) [Compound 87], the EC50 was below 0.5 µM. The figure for `Nc1cc(C(F)(F)F)c2nc1-c1nnc(o1)C(O)(C1CCOCC1)CCCCC[C@@H]1CCCN21` (single isomer, unassigned) [Compound 88] is below 0.5 µM; for `Nc1cc(C(F)(F)F)c2nc1-c1nnc(o1)C(O)(C1CCOCC1)CCCCC[C@@H]1CCCN21` (single isomer, unassigned) [Compound 89] it is above 1 µM; for `Nc1cc(C2CC2)c2nc1-c1nnc(o1)C(O)(C(F)(F)F)CCCCC[C@@H]1CCCN21` (single isomer, unassigned) [Compound 90] it is below 0.5 µM. To `Nc1cc(C2CC2)c2nc1-c1nnc(o1)C(O)(C(F)(F)F)CCCCC[C@@H]1CCCN21` (single isomer, unassigned) [Compound 91] belongs above 1 µM; to `COc1ccc2cc1C(O)(C(F)(F)F)C1=NN=C(O1)c1nc(c(C(F)(F)F)cc1N)N1CCC[C@H]1CCC2` (single isomer, unassigned) [Compound 92], above 1 µM; to `COc1ccc2cc1C(O)(C(F)(F)F)C1=NN=C(O1)c1nc(c(C(F)(F)F)cc1N)N1CCC[C@H]1CCC2` (single isomer, unassigned) [Compound 93], below 0.5 µM. The figure for `CCOC(=O)C1CCCCCC(O)(C(F)(F)F)C2=NN=C(O2)c2nc(c(C(F)(F)F)cc2N)N1` (single isomer, unassigned) [Compound 94, ethyl 17-amino-6-hydroxy-6,15-bis(trifluoromethyl)-19-oxa-3,4,13,18-tetrazatricyclo[12.3.1.12,5]nonadeca-1(18),2,4,14,16-pentaene-12-carboxylate] is below 0.5 µM. On to `CCOC(=O)C1CCCCCC(O)(C(F)(F)F)C2=NN=C(O2)c2nc(c(C(F)(F)F)cc2N)N1` (single isomer, unassigned) [Compound 95, ethyl 17-amino-6-hydroxy-6,15-bis(trifluoromethyl)-19-oxa-3,4,13,18-tetrazatricyclo[12.3.1.12,5]nonadeca-1(18),2,4,14,16-pentaene-12-carboxylate], for which the half-maximal effective concentration (EC50) was below 0.5 µM. As for `CCOC(=O)C1CCCCCC(O)(C(F)(F)F)C2=NN=C(O2)c2nc(c(C(F)(F)F)cc2N)N1` (single isomer, unassigned) [Compound 97, ethyl 17-amino-6-hydroxy-6,15-bis(trifluoromethyl)-19-oxa-3,4,13,18-tetrazatricyclo[12.3.1.12,5]nonadeca-1(18),2,4,14,16-pentaene-12-carboxylate], the EC50 was above 1 µM.

Turning to `CP(C)(=O)c1cc(N)c2nc1N1CCC[C@H]1CCCCCC(O)(C(F)(F)F)C1=NN=C2O1` (single isomer, unassigned) [Compound 98], the EC50 is above 1 µM. For `CP(C)(=O)c1cc(N)c2nc1N1CCC[C@H]1CCCCCC(O)(C(F)(F)F)C1=NN=C2O1` (single isomer, unassigned) [Compound 99], the half-maximal effective concentration (EC50) is above 1 µM. The figure for `Nc1cc(C(F)(F)F)c2nc1-c1nnc(o1)C(O)(CO)CCCCC[C@@H]1CCCN21` (single isomer, unassigned) [Compound 100] is 0.5 to 1 µM; for `Nc1cc(C(F)(F)F)c2nc1-c1nnc(o1)C(O)(CO)CCCCC[C@@H]1CCCN21` (single isomer, unassigned) [Compound 101] it is below 0.5 µM; for `Nc1cc(C(F)(F)F)c2nc1-c1nnc(o1)C(O)(C(F)(F)F)CCCCCC(CO)N2` (single isomer, unassigned) [Compound 102, 17-amino-12-(hydroxymethyl)-6,15-bis(trifluoromethyl)-19-oxa-3,4,13,18-tetrazatricyclo[12.3.1.12,5]nonadeca-1(18),2,4,14,16-pentaen-6-ol] it is below 0.5 µM. On to `Nc1cc(C(F)(F)F)c2nc1-c1nnc(o1)C(O)(C(F)(F)F)CCCCCC(CO)N2` (single isomer, unassigned) [Compound 103, 17-amino-12-(hydroxymethyl)-6,15-bis(trifluoromethyl)-19-oxa-3,4,13,18-tetrazatricyclo[12.3.1.12,5]nonadeca-1(18),2,4,14,16-pentaen-6-ol], for which the EC50 is below 0.5 µM.

Consider `Nc1cc(C(F)(F)F)c2nc1-c1nnc(o1)C(O)(C(F)(F)F)CCCCCC(CO)N2` (single isomer, unassigned) [Compound 104, 17-amino-12-(hydroxymethyl)-6,15-bis(trifluoromethyl)-19-oxa-3,4,13,18-tetrazatricyclo[12.3.1.12,5]nonadeca-1(18),2,4,14,16-pentaen-6-ol], for which the EC50 is below 0.5 µM.

With `Nc1cc(C(F)(F)F)c2nc1-c1nnc(o1)C(O)(C(F)(F)F)CCCCCC(CO)N2` (single isomer, unassigned) [Compound 105, 17-amino-12-(hydroxymethyl)-6,15-bis(trifluoromethyl)-19-oxa-3,4,13,18-tetrazatricyclo[12.3.1.12,5]nonadeca-1(18),2,4,14,16-pentaen-6-ol], the EC50 was above 1 µM. To `Nc1cc(C(F)(F)F)c2nc1-c1nnc(o1)C(O)(C(F)(F)F)CCCCCCC(=O)N2` (single isomer, unassigned) [Compound 106, 18-Amino-6-hydroxy-6,16-bis(trifluoromethyl)-20-oxa-3,4,14,19-tetrazatricyclo[13.3.1.12,5]icosa-1(19),2,4,15,17-pentaen-13-one] belongs below 0.5 µM; to `Nc1cc(C(F)(F)F)c2nc1-c1nnc(o1)C(O)(C(F)(F)F)CCCCCCC(=O)N2` (single isomer, unassigned) [Compound 107, 18-amino-6-hydroxy-6,16-bis(trifluoromethyl)-20-oxa-3,4,14,19-tetrazatricyclo[13.3.1.12,5]icosa-1(19),2,4,15,17-pentaen-13-one], above 1 µM. To `Nc1cc(C(F)(F)F)c2nc1-c1nnc(o1)C(O)(C(F)(F)F)CCCCCC(=O)N2` (single isomer, unassigned) [Compound 108, 17-amino-6-hydroxy-6,15-bis(trifluoromethyl)-19-oxa-3,4,13,18-tetrazatricyclo[12.3.1.12,5]nonadeca-1(18),2,4,14,16-pentaen-12-one] belongs below 0.5 µM; to `Nc1cc(C(F)(F)F)c2nc1-c1nnc(o1)C(O)(C(F)(F)F)CCCCCC(=O)N2` (single isomer, unassigned) [Compound 109, 17-amino-6-hydroxy-6,15-bis(trifluoromethyl)-19-oxa-3,4,13,18-tetrazatricyclo[12.3.1.12,5]nonadeca-1(18),2,4,14,16-pentaen-12-one], above 1 µM.

Take `Nc1cc(C(F)(F)F)c2nc1-c1nnc(o1)C(O)(C(F)(F)F)CCCCCC1CCS(=O)(=O)N21` (single isomer, unassigned) [Compound 110, 20-amino-6-hydroxy-6,18-bis(trifluoromethyl)-22-oxa-15λ6-thia-3,4,16,21-tetraazatetracyclo[15.3.1.12,5.012,16]docosa-1(21),2,4,17,19-pentaene-15,15-dione]: the EC50 is below 0.5 µM. To `Nc1cc(C(F)(F)F)c2nc1-c1nnc(o1)C(O)(C(F)(F)F)CCCCCC1CCS(=O)(=O)N21` (single isomer, unassigned) [Compound 111, 20-amino-6-hydroxy-6,18-bis(trifluoromethyl)-22-oxa-15λ6-thia-3,4,16,21-tetraazatetracyclo[15.3.1.12,5.012,16]docosa-1(21),2,4,17,19-pentaene-15,15-dione] belongs above 1 µM.

For the origin of these results see US12324802B2, “Modulators of cystic fibrosis transmembrane conductance regulator” (Vertex Pharmaceuticals Incorporated, priority 2020, dated 2025).
